Experimental data from publication PMC4050313, “Panaxadiol and Panaxatriol Derivatives as Anti-Hepatitis B Virus Inhibitors” (Natural Products and Bioprospecting, 2014).
pIC50: −log10 of the molar value.

Legend:
HBsAg secretion = assay: microbe, parasite or virus in culture; format: cell-based, Hepatitis B virus; conditions: for pIC50: HepG 2.2.15 cells, means of two independent experiments, read-out: HBsAg IC50; for growth of inhibition on HBsAg secretion: relative to inactive compound 8
Method: (§1) Based on our previous description, inhibitory activity on HBV (HBsAg, HBeAg and HBV DNA) was evaluated. […] Cytotoxicity was assayed with a modified 3-(4,5-dimethylthiazole-2-yl)-2,5-diphenyltetrazolium bromide (MTT) method (Gibco Invitrogen, Carlsbad, CA, USA). The anti-HBV antigen secretion activities were determined by the enzyme linked immunosorbent assay (ELISA; Autobio Diagnostics Co., Ltd, China). A real-time PCR assay was applied to detect the inhibitory activity on HBV DNA replication.

HBeAg secretion = assay: microbe, parasite or virus in culture; format: cell-based, Hepatitis B virus; conditions: HepG 2.2.15 cells; means of two independent experiments; read-out: HBeAg IC50
Method: as §1

HepG 2.2.15 cells = assay: Cytotoxicity, modified MTT method; format: cell-based; conditions: 50 % cytotoxicity concentration in HepG 2.2.15 cells; means of two independent experiments
Method: as §1

HBV DNA replication = assay: Inhibition of HBV DNA replication, real-time PCR, HepG 2.2.15 cells; format: cell-based, Hepatitis B virus; conditions: for pIC50: HepG 2.2.15 cells, means of two independent experiments; for growth of inhibition on HBV DNA replication: relative to inactive compound 8
Method: as §1

[1] = test system: liver injury induced by D-galactosamine and lipopolysaccharide; parameters: method as in PMID 12880307; conditions: liver injury induced by D-galactosamine and lipopolysaccharide in mice; cited from earlier work

SMILES | pIC50 (HBsAg secretion) | pIC50 (HBeAg secretion) | CC50 (HepG 2.2.15 cells) [µM] | pIC50 (HBV DNA replication) | hepatoprotective activity [1] | growth of inhibition on HBsAg secretion (HBsAg secretion) [folds] | growth of inhibition on HBV DNA replication (HBV DNA replication) [folds]
CC(=O)OC1CC2(C)C(CC(O)C3C(C4(C)CCCC(C)(C)O4)CCC32C)C2(C)CCC(OC(C)=O)C(C)(C)C12 (centres unmarked) [Compound 20, 3,6-O-Diacetyl-panaxatriol] | < 2.68 | < 2.68 | > 2100 | 3.26 | – | – | –
CC1(C)CCC[C@](C)([C@H]2CC[C@]3(C)[C@@H]2[C@H](O)C[C@@H]2[C@@]4(C)CC[C@H](OC(=O)c5sccc5Cl)C(C)(C)[C@@H]4CC[C@]23C)O1 [Compound 6, 3-O-(3′-Chloro)-thenoyl panaxadiol] | – | 3.55 | > 1640 | 4.36 | – | – | –
CC1(C)CCCC(C)(C2CCC3(C)C2C(O)CC2C4(C)CCC(OC(=O)c5ccco5)C(C)(C)C4C(OC(=O)c4ccco4)CC23C)O1 (centres unmarked) [Compound 22, 3,6-O-Di(2′-furoyl)-panaxatriol] | < 2.89 | < 2.89 | 530 | < 3.49 | – | – | –
CC(C)=CCC[C@](C)(O[C@@H]1O[C@H](CO[C@@H]2O[C@@H](CO)[C@H](O)[C@H]2O)[C@@H](O)[C@H](O)[C@H]1O)[C@H]1CC[C@]2(C)[C@@H]1[C@H](O)C[C@@H]1[C@@]3(C)CC[C@H](O[C@@H]4O[C@H](CO)[C@@H](O)[C@H](O)[C@H]4O[C@@H]4O[C@H](CO)[C@@H](O)[C@H](O)[C@H]4O)C(C)(C)[C@@H]3CC[C@]12C [Rc, ginsenoside Rc] | – | – | – | – | showed hepatoprotective activity | – | –
CC(CC(=O)O)CC(=O)O[C@H]1CC[C@]2(C)[C@H]3C[C@@H](O)[C@@H]4[C@@H]([C@@]5(C)CCCC(C)(C)O5)CC[C@@]4(C)[C@]3(C)CC[C@H]2C1(C)C (some centres unmarked) [Compound 17, 3-O-(3′-Methyl) diglutaryl panaxadiol] | – | – | 934 | 4.06 | – | – | –
CC1(C)CCCC(C)(C2CCC3(C)C2C(=O)CC2C4(C)CCC(OC(=O)c5cccs5)C(C)(C)C4CCC23C)O1 [Compound 27, (20R)-20,25-Epoxy-3-O-(2′-thenoyl)-dammaran-12-dione] | – | – | > 2160 | – | – | – | –
CC1(C)CCCC(C)(C2CCC3(C)C2C(O)CC2C4(C)CCC(OC(=O)c5ccccc5O)C(C)(C)C4CCC23C)O1 (centres unmarked) [Compound 9, 3-O-Salicyloyl panaxadiol] | 4.36 | – | 44.4 | 5.04 | – | 60 | 60
CC(C)=CCC[C@](C)(O[C@@H]1O[C@H](CO)[C@@H](O)[C@H](O)[C@H]1O)[C@H]1CC[C@]2(C)[C@@H]1[C@H](O)C[C@@H]1[C@@]3(C)CC[C@H](O[C@@H]4O[C@H](CO)[C@@H](O)[C@H](O)[C@H]4O[C@@H]4O[C@H](CO)[C@@H](O)[C@H](O)[C@H]4O)C(C)(C)[C@@H]3CC[C@]12C [Rd, ginsenoside Rd] | – | – | – | – | showed hepatoprotective activity | – | –
CCOCC(=O)O[C@H]1CC[C@]2(C)[C@H]3C[C@@H](O)[C@@H]4[C@@H]([C@@]5(C)CCCC(C)(C)O5)CC[C@@]4(C)[C@]3(C)CC[C@H]2C1(C)C [Compound 13, 3-O-2′-Ethyoxyl-acetyl panaxadiol] | 3.23 | < 2.63 | 1490 | < 3.23 | – | – | –
CC1(C)CCCC(C)(C2CCC3(C)C2C(O)CC2C4(C)CCC(OC(=O)c5cccs5)C(C)(C)C4CCC23C)O1 (centres unmarked) [Compound 4, 3-O-(2′-Thenoyl) panaxadiol] | 4.51 | 4.74 | > 1910 | 4.78 | – | – | –
CCCCC(=O)O[C@H]1CC[C@]2(C)[C@H]3C[C@@H](O)[C@@H]4[C@@H]([C@@]5(C)CCCC(C)(C)O5)CC[C@@]4(C)[C@]3(C)CC[C@H]2C1(C)C [Compound 12, 3-O-Valeryl panaxadiol] | – | – | > 1580 | < 2.80 | – | – | –
CC(=O)OC1CCC2(C)C(CCC3(C)C2CC(=O)C2C(C4(C)CCCC(C)(C)O4)CCC23C)C1(C)C [Compound 26, (20R)-20,25-Epoxy-3-O-acetoyl-dammaran-12-dione] | – | – | > 2280 | – | – | – | –
CC1(C)CCCC(C)(C2CCC3(C)C2C(O)CC2C4(C)CCC(OC(=O)CCCC(=O)O)C(C)(C)C4CCC23C)O1 (centres unmarked) [Compound 15, 3-O-Glutaryl panaxadiol] | 4.27 | 3.99 | 86.6 | 4.55 | – | – | –
CC1(C)CCCC(C)(C2CCC3(C)C2C(O)CC2C4(C)CCC(OC(=O)c5cccnc5)C(C)(C)C4C(OC(=O)c4cccnc4)CC23C)O1 (centres unmarked) [Compound 24, 3,6-O-Dinicotinoyl-panaxatriol] | 2.78 | 2.97 | 1650 | 3.39 | – | – | –
CC1(C)CCCC(C)(C2CCC3(C)C2C(O)CC2C4(C)CCC(OC(=O)c5ccco5)C(C)(C)C4CCC23C)O1 (centres unmarked) [Compound 3, 3-O-(2′-Furoyl) panaxadiol] | 3.08 | 2.93 | 1180 | 4.30 | – | – | –
CC1(C)CCCC(C)(C2CCC3(C)C2C(=O)CC2C4(C)CCC(OC(=O)CCC(=O)O)C(C)(C)C4CCC23C)O1 [Compound 28, (20R)-20,25-Epoxy-3-O-succinyl-dammaran-12-dione] | < 2.71 | < 2.71 | > 1940 | < 3.31 | – | – | –

SMILES | pIC50 (HBsAg secretion) | pIC50 (HBeAg secretion) | CC50 (HepG 2.2.15 cells) [µM] | pIC50 (HBV DNA replication) | hepatoprotective activity [1] | growth of inhibition on HBsAg secretion (HBsAg secretion) [folds] | growth of inhibition on HBV DNA replication (HBV DNA replication) [folds]
CC1(C)CCC[C@](C)([C@H]2CC[C@]3(C)[C@@H]2[C@H](O)C[C@@H]2[C@@]4(C)CC[C@H](OC(=O)c5cc(O)c(O)c(O)c5)C(C)(C)[C@@H]4CC[C@]23C)O1 [Compound 10, 3-O-Galloyl panaxadiol] | 4.34 | < 2.84 | 25.9 | 5.14 | – | 60 | 60
CC1(C)CCCC(C)(C2CCC3(C)C2C(O)CC2C4(C)CCC(OC(=O)CCC(=O)O)C(C)(C)C4CCC23C)O1 (centres unmarked) [Compound 14, 3-O-Succinyl panaxadiol] | 3.70 | 3.77 | 179 | 4.78 | – | – | –
CC1(C)CCCC(C)(C2CCC3(C)C2C(O)CC2C4(C)CCC(OC(=O)c5cc6ccccc6s5)C(C)(C)C4CCC23C)O1 (centres unmarked) [Compound 7, 3-O-Benzothiophene-2-carboxyl panaxadiol] | – | – | > 1690 | – | – | – | –
CC1(C)CCCC(C)(C2CCC3(C)C2C(O)CC2C4(C)CCC(OC(=O)CCC(=O)O)C(C)(C)C4C(OC(=O)CCC(=O)O)CC23C)O1 (centres unmarked) [Compound 21, 3,6-O-Disuccinyl panaxatriol] | < 2.71 | < 2.71 | > 1940 | < 3.31 | – | – | –
Cc1ccsc1C(=O)OC1CCC2(C)C(CCC3(C)C2CC(O)C2C(C4(C)CCCC(C)(C)O4)CCC23C)C1(C)C (centres unmarked) [Compound 5, 3-O-(3′-Methyl)-thenoyl panaxadiol] | < 2.69 | < 2.69 | > 2020 | < 3.30 | – | – | –
COCC(=O)OC1CC2(C)C(CC(O)C3C(C4(C)CCCC(C)(C)O4)CCC32C)C2(C)CCC(OC(=O)COC)C(C)(C)C12 (centres unmarked) [Compound 25, 3,6-O-Di(2′-methoxyl)acetoxyl-panaxatriol] | < 2.82 | 3.01 | > 1500 | < 3.43 | – | – | –
CC1(C)CCCC(C)(C2CCC3(C)C2C(O)CC2C4(C)CCC(OC(=O)c5cccnc5)C(C)(C)C4CCC23C)O1 (centres unmarked) [Compound 11, 3-O-Nicotinoyl panaxadiol] | 2.94 | 2.94 | 1150 | 3.93 | – | – | –
CC1(C)CCCC(C)(C2CCC3(C)C2C(O)CC2C4(C)CCC(OC(=O)C5CCCC5)C(C)(C)C4CCC23C)O1 (centres unmarked) [Compound 2, 3-O-Cyclopentanecarbonyl panaxadiol] | 2.90 | < 2.67 | > 2140 | 3.29 | – | – | –
CC(=O)OC1CCC2(C)C(CCC3(C)C2CC(O)C2C(C4(C)CCCC(C)(C)O4)CCC23C)C1(C)C (centres unmarked) [Compound 1, 3-O-Acetly-panaxadiol] | – | – | > 2060 | – | – | – | –
CC1(C)CCCC(C)(C2CCC3(C)C2C(O)CC2C4(C)CCC(OC(=O)COCC(=O)O)C(C)(C)C4CCC23C)O1 (centres unmarked) [Compound 16, 3-O-Diglycolyl panaxadiol] | < 2.77 | 3.05 | > 1700 | 4.28 | – | – | –
CC1(C)CCCC(C)(C2CCC3(C)C2C(O)CC2C4(C)CCC(OC(=O)c5cccs5)C(C)(C)C4C(OC(=O)c4cccs4)CC23C)O1 (centres unmarked) [Compound 23, 3,6-O-Di(2′-thenoyl)-panaxatriol] | – | – | > 2090 | < 2.68 | – | – | –
CC1(C)CCCC(C)(C2CCC3(C)C2C(O)CC2C4(C)CCC(OC(=O)CC5(CC(=O)O)CCCC5)C(C)(C)C4CCC23C)O1 (centres unmarked) [Compound 19, 3-O-(3′,3′-tetramethylene)diglutaryl panaxadiol] | < 2.76 | < 2.76 | > 1730 | < 3.36 | – | – | –
CC1(C)CCC[C@](C)([C@H]2CC[C@]3(C)[C@@H]2[C@H](O)C[C@@H]2[C@@]4(C)CC[C@H](OC(=O)c5ccccc5)C(C)(C)[C@@H]4CC[C@]23C)O1 [Compound 8, 3-O-Benzoyl panaxadiol] | < 2.70 | < 2.70 | > 2000 | 3.30 | – | – | –
O=C(O)c1cccs1 [TA, thiophenezoic acid, reference compound] | – | – | – | 2.75 | – | – | –
CC(C)(CC(=O)O)CC(=O)O[C@H]1CC[C@]2(C)[C@H]3C[C@@H](O)[C@@H]4[C@@H]([C@@]5(C)CCCC(C)(C)O5)CC[C@@]4(C)[C@]3(C)CC[C@H]2C1(C)C [Compound 18, 3-O-(3′,3′-Dimethyl) glutaryl panaxadiol] | 3.03 | – | 314 | 3.91 | – | – | –
